# Reference: US8158647B2, “Substituted pyrrolopyridines and pyrazolopyridines as kinase modulators” (SGX Pharmaceuticals, Inc., priority 2007, dated 2012)
# What was measured:
# [1] = target: T1, purified and unphosphorylated T315I Abl kinase domain (ABL_T315I_0P) (Mus musculus, UniProt P00520, T315I); assay: c-Abl T315I (unphosphorylated kinase domain) pyruvate kinase/lactate dehydrogenase coupled enzyme assay; type: biochemical; details: 10 μM ATP
# T1 construct: The c-Abl T3151 KD (kinase domain) was purified as follows; Met-Ser-Leu (vector-derived residues) (N); made in house; host or cells: E. coli BL21(DE3) strains (Codon+RIL, or pSA0145 for the lambda phosphatase co-expression plasmid)
# T1 sequence (P00520 242-493 T315I limits assumed): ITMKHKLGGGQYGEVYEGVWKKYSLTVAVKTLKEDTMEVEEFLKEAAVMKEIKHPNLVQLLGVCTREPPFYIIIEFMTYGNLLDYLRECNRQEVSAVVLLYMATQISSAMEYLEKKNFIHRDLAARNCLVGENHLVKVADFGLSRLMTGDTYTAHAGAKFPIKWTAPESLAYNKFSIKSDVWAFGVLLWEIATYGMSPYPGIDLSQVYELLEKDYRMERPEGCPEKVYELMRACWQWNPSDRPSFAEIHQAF
# ABL P210WT BAF3 cells = target: T2, ABL P210WT BAF3 cells (Homo sapiens, UniProt P00519); assay: 96-well XTT cell survival assay, BaF3 ABL P210WT; type: cell-based; details: ABL P210 WT, 72 hours, read-out: CELL BIO ABL P210WT BAF3 XTT (IC50)
# T2 construct: ABL P210WT BAF3; fused on or other part: P11274 (Breakpoint cluster region protein)
# Summary of the method: (§1)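 Ba/F3 cells in RPMI 1640 with 10% FBS (IL-3 medium for maintenance) were seeded at 5000-8000 cells/well and exposed to compound dilutions in duplicate for 72 h at 37° C. Viability read by XTT/PMS, absorbance 405 nm minus 650 nm after 2-6 h.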
# ABL T315I BAF3 cells = target: T3, ABL T315I BAF3 cells (Homo sapiens, UniProt P00519, T315I, cells depend on it); assay: 96-well XTT cell survival assay, BaF3 ABL T315I; type: cell-based; details: 72 hours, read-out: CELL BIO ABL T315I BAF3 XTT (IC50)
# T3 construct: ABL T315I BAF3; fused on or other part: P11274 (Breakpoint cluster region protein)
# Summary of the method: as §1
Compound,ABL_T315I_0P (IC50) [1],GI50 (ABL P210WT BAF3 cells) [nM],GI50 (ABL T315I BAF3 cells) [nM]
"CCN(C)C(=O)c1cc(-c2cnc3[nH]cc(-c4cc(F)ccc4F)c3c2Cl)cnc1N [2-Amino-5-[4-chloro-3-(2,5-difluoro-phenyl)-1H-pyrrolo[2,3-b]pyridin-5-yl]-N-ethyl-N-methyl-nicotinamide]",D (<0.01 μM),100 to 1000,100 to 1000
"OC(c1cccc(-c2cnc3[nH]cc(-c4ccccc4F)c3c2Cl)c1)c1ncco1 (stereo not drawn) [{3-[4-Chloro-3-(2-fluoro-phenyl)-1H-pyrrolo[2,3-b]pyridin-5-yl]-phenyl}-oxazol-2-yl-methanol]",D (<0.01 μM),> 1000,> 1000
"COc1ccc(C(F)(F)F)cc1-c1c[nH]c2ncc(-c3cnc(N)c(C(=O)N(C)C)c3)c(Cl)c12 [2-Amino-5-[4-chloro-3-(2-methoxy-5-trifluoromethyl-phenyl)-1H-pyrrolo[2,3-b]pyridin-5-yl]-N,N-dimethyl-nicotinamide]",D (<0.01 μM),100 to 1000,100 to 1000
CN(C)C(=O)c1cncc(-c2cnc3[nH]cc(-c4cccc(F)c4F)c3c2Cl)n1,D (<0.01 μM),100 to 1000,100 to 1000
"OC(c1cncc(-c2cnc3[nH]cc(-c4ccc(F)cc4)c3c2Cl)c1)c1ncccc1F (stereo not drawn) [{5-[4-Chloro-3-(4-fluoro-phenyl)-1H-pyrrolo[2,3-b]pyridin-5-yl]-pyridin-3-yl}-(3-fluoro-pyridin-2-yl)-methanol]",C (0.1-0.01 μM),> 1000,> 1000
"COc1ccccc1-c1c[nH]c2ncc(-c3cccc(C(=O)N(C)C)c3)c(C)c12 [3-[3-(2-Methoxy-phenyl)-4-methyl-1H-pyrrolo[2,3-b]pyridin-5-yl]-N,N-dimethyl-benzamide]",D (<0.01 μM),10 to 100,10 to 100
"CN(C)C(=O)c1cncc(-c2cnc3[nH]cc(-c4ccc(F)cc4)c3c2Cl)n1 [6-[4-Chloro-3-(4-fluoro-phenyl)-1H-pyrrolo[2,3-b]pyridin-5-yl]-pyrazine-2-carboxylic acid dimethylamide]",D (<0.01 μM),100 to 1000,> 1000
"CN(C)C(=O)c1cc(-c2cnc3[nH]cc(-c4cccc(F)c4F)c3c2Cl)cnc1N [2-Amino-5-[4-chloro-3-(2,3-difluoro-phenyl)-1H-pyrrolo[2,3-b]pyridin-5-yl]-N,N-dimethyl-nicotinamide]",D (<0.01 μM),100 to 1000,100 to 1000
"Nc1ncc(-c2cnc3[nH]cc(-c4cccc(F)c4)c3c2Cl)cc1C(=O)N1CCCC1CO (stereo not drawn) [{2-Amino-5-[4-chloro-3-(3-fluoro-phenyl)-1H-pyrrolo[2,3-b]pyridin-5-yl]-pyridin-3-yl}-(2-hydroxymethyl-pyrrolidin-1-yl)-methanone]",D (<0.01 μM),100 to 1000,100 to 1000
"Nc1ncc(-c2cnc3[nH]cc(-c4cc(F)ccc4F)c3c2Cl)cc1C(=O)N1CCOCC1 [{2-Amino-5-[4-chloro-3-(2,5-difluoro-phenyl)-1H-pyrrolo[2,3-b]pyridin-5-yl]-pyridin-3-yl}-morpholin-4-yl-methanone]",D (<0.01 μM),100 to 1000,100 to 1000
"COc1ccccc1-c1c[nH]c2ncc(-c3cnc(N)c(C(=O)N4CCOCC4)c3)c(Cl)c12 [{2-Amino-5-[4-chloro-3-(2-methoxy-phenyl)-1H-pyrrolo[2,3-b]pyridin-5-yl]-pyridin-3-yl}-morpholin-4-yl-methanone]",D (<0.01 μM),100 to 1000,100 to 1000
"Nc1ncc(-c2cnc3[nH]cc(-c4cc(F)ccc4F)c3c2Cl)cc1C(=O)N1CC(O)C1 [{2-Amino-5-[4-chloro-3-(2,5-difluoro-phenyl)-1H-pyrrolo[2,3-b]pyridin-5-yl]-pyridin-3-yl}-(3-hydroxy-azetidin-1-yl)-methanone]",D (<0.01 μM),100 to 1000,100 to 1000

# Continued, in another order:
ABL_T315I_0P (IC50) [1],Compound,GI50 (ABL P210WT BAF3 cells) [nM],GI50 (ABL T315I BAF3 cells) [nM]
D (<0.01 μM),"COc1ncccc1-c1c[nH]c2ncc(-c3cncc(C(O)C(=O)N(C)C)c3)c(Cl)c12 (stereo not drawn) [2-{5-[4-Chloro-3-(2-methoxy-pyridin-3-yl)-1H-pyrrolo[2,3-b]pyridin-5-yl]-pyridin-3-yl}-2-hydroxy-N,N-dimethyl-acetamide]",10 to 100,100 to 1000
D (<0.01 μM),"COc1ccc(F)cc1-c1c[nH]c2ncc(-c3cnc(N)c(C(=O)N(C)C)c3)c(Cl)c12 [2-Amino-5-[4-chloro-3-(5-fluoro-2-methoxy-phenyl)-1H-pyrrolo[2,3-b]pyridin-5-yl]-N,N-dimethyl-nicotinamide]",< 10,< 10
D (<0.01 μM),"COc1ccccc1-c1c[nH]c2ncc(-c3cncc(C(O)C(=O)N(C)C)c3)c(C(F)(F)F)c12 (stereo not drawn) [2-Hydroxy-2-{5-[3-(2-methoxy-phenyl)-4-trifluoromethyl-1H-pyrrolo[2,3-b]pyridin-5-yl]-pyridin-3-yl}-N,N-dimethyl-acetamide]",10 to 100,10 to 100
D (<0.01 μM),"COc1ccccc1-c1c[nH]c2ncc(-c3cncc(C(O)C(=O)N(C)C)c3)c(Cl)c12 (stereo not drawn) [2-{5-[4-Chloro-3-(2-methoxy-phenyl)-1H-pyrrolo[2,3-b]pyridin-5-yl]-pyridin-3-yl}-2-hydroxy-N,N-dimethyl-acetamide]",< 10,< 10
D (<0.01 μM),CN(C)C(=O)C(O)c1cc(-c2cnc3[nH]cc(-c4ccccc4F)c3c2Cl)cnc1N (stereo not drawn),100 to 1000,10 to 100
D (<0.01 μM),"COc1cnccc1-c1c[nH]c2ncc(-c3cncc(C(O)C(=O)N(C)C)c3)c(Cl)c12 (stereo not drawn) [2-{5-[4-Chloro-3-(3-methoxy-pyridin-4-yl)-1H-pyrrolo[2,3-b]pyridin-5-yl]-pyridin-3-yl}-2-hydroxy-N,N-dimethyl-acetamide]",> 1000,> 1000
D (<0.01 μM),"CNc1c(-c2cncc(C(O)C(=O)N(C)C)c2)cnc2[nH]cc(-c3ccccc3OC)c12 (stereo not drawn) [2-Hydroxy-2-{5-[3-(2-methoxy-phenyl)-4-methylamino-1H-pyrrolo[2,3-b]pyridin-5-yl]-pyridin-3-yl}-N,N-dimethyl-acetamide]",100 to 1000,100 to 1000
D (<0.01 μM),"CN(C)C(=O)Cc1cncc(-c2cnc3[nH]cc(-c4cccc(F)c4F)c3c2Cl)c1 [2-{5-[4-Chloro-3-(2,3-difluoro-phenyl)-1H-pyrrolo[2,3-b]pyridin-5-yl]-pyridin-3-yl}-N,N-dimethyl-acetamide]",100 to 1000,100 to 1000
D (<0.01 μM),"COc1ccccc1-c1c[nH]c2ncc(-c3cncc(C(O)C(=O)N(C)C)c3)c(OC)c12 (stereo not drawn) [2-Hydroxy-2-{5-[4-methoxy-3-(2-methoxy-phenyl)-1H-pyrrolo[2,3-b]pyridin-5-yl]-pyridin-3-yl}-N,N-dimethyl-acetamide]",10 to 100,10 to 100
D (<0.01 μM),"CN(C)C(=O)c1cncc(-c2cnc3[nH]cc(-c4ccccc4F)c3c2Cl)n1 [6-[4-chloro-3-(2-fluoro-phenyl)-1H-pyrrolo[2,3,b]pyridine-5-]",100 to 1000,100 to 1000
